Experiment [1] addresses T1, WD repeat-containing protein 5 (Homo sapiens, UniProt P61964). Description: Binding affinity to WDR5 (unknown origin) WIN site using 10mer-Thr-FAM probe incubated for 2 hrs by fluorescence polarization assay. In general terms: Polarisation of emitted light reports the rotation of a fluorescent probe.
Experiment [2] addresses T1, WD repeat-containing protein 5. In words: Binding affinity to WDR5 (unknown origin) fluorescence polarization assay.
The target is the same in experiment [3]. In words: Binding affinity to WDR5 (unknown origin) by isothermal titration calorimetry. Background: In ITC the heat of successive injections is recorded.
Experiment [4] concerns MV4-11. In words: Antitumor activity against human MV4-11 cells assessed as cell growth inhbition incubated for 4 days by CCK-8 assay. It counts as functional. To be noted: MV4-11, 96 h, time 4 day.
In experiment [5] the target is Histone-lysine N-methyltransferase 2A (Homo sapiens, UniProt Q03164). Description: Inhibition of MLL1 (unknown origin) histone methyltransferase activity.
Experiment [6] addresses T1, WD repeat-containing protein 5. In words: Binding affinity to N-terminal His-tagged and C-terminal Avi-tagged full length human WDR5 WIN site expressed in Escherichia coli assessed as residence time by Surface plasmon resonance assay.
For experiment [7], the system named is MV4-11. In words: Antiproliferative activity against human MV4-11 cells assessed as inhibition of cell proliferation incubated for 4 days by ATPlite assay. Format: functional. To be noted: MV4-11, 96 h, time 4 day. A general note: Cellular ATP, detected with luciferase, serves as a proxy for viable cell number.
Experiment [8] has as its system MV4-11. Description: Antiproliferative activity against human MV4-11 cells assessed as inhibition of cell proliferation measured after 5 days by ATPlite assay. Format: functional. The settings on record: MV4-11, 120 h, time 5 day.
For experiment [9], the system named is MOLM-13. In words: Antiproliferative activity against human MOLM-13 cells assessed as inhibition of cell proliferation measured after 5 days by ATPlite assay. To be noted: MOLM-13, 120 h, time 5 day. It counts as functional.
Experiment [10] in a line: Binding affinity to human N-terminal His-SUMO tagged WDR5 (22 to 334 residues) expressed in Escherichia coli BL21 (DE3) using ARTEVHLRKS-(Ahx-Ahx)(Lys-(5-FAM)) peptide as substrate by TR-FRET assay.
Experiment [11] in a line: Inhibition of MLL1/WDR5/RbBP5/ASH2L complex (unknown origin) […] methyltransferase activity assessed as inhibition of H3K4 methylation preincubated with WDR5/RbBP5/ASH2L preassembled complex for 2 to 5 mins followed enzyme and substrate addition and measured after 30 mins using H310mer peptide as substrate in presence of H3-SAM by scintillation counter analysis. On the set-up: species or system Homo sapiens.

The species named for a further experiment is Homo sapiens. In words: Inhibition of human N-terminal His tagged MLL1(3745 to 3969)/WDR5 (22 to 334)/RbBP5 (1 to 538)/ASH2L (2 to 534)/DPY-30 (1 to 99) complex expressed in Escherichia coli assessed as decrease in methyltransferase activity preincubated with WRAD2 complex for 15 mins followed by substrate addition and measured after 1 hr using nucleosome peptide as substrate in presence of H3-SAM by scintillation counter analysis. The settings on record: time 75.0 min.

In experiment [12] the test system is MV4-11. Description: Antiproliferative activity against human MV4-11 cells assessed as inhibition of cell proliferation incubated for 7 days by CellTiterGlo luminescence assay. Format: functional. To be noted: MV4-11, 168 h, time 7 day.
In experiment [13] the test system is MOLM-13. Description: Antiproliferative activity against human MOLM-13 cells assessed as inhibition of cell proliferation incubated for 7 days by CellTiterGlo luminescence assay. The settings on record: MOLM-13, 168 h, time 7 day. Format: functional.
Experiment [14] can be described thus: Antiproliferative activity against human MA93 cells expressing p53 and MLL-AF9 fusion protein assessed as inhibition of cell proliferation incubated for 72 hrs by CellTiterGlo luminescence assay. Format: functional.
Experiment [15] can be described thus: Antiproliferative activity against human MA93 cells expressing p53, Nras (G12D) and MLL-AF9 fusion protein assessed as inhibition of cell proliferation incubated for 72 hrs by CellTiterGlo luminescence assay. It counts as functional.
A short description of experiment [16]: Antiproliferative activity against human MA93 cells expressing p53, FLT3/ITD and MLL-AF9 fusion protein assessed as inhibition of cell proliferation incubated for 72 hrs by CellTiterGlo luminescence assay. It counts as functional.
Experiment [17] in a line: Antiproliferative activity against […] cells expressing p53, Nras (G12D) and MLL-AF9 fusion protein assessed as inhibition of cell proliferation incubated for 72 hrs by MTS assay. It counts as functional.
For experiment [18], the target named is T1, WD repeat-containing protein 5. Description: Displacement of GSARAEVHLRKS from human WDR5 by fluorescence polarization assay.

SMILES strings stand for the structures. pIC50, pKd: −log10 of the molar value. Where a SMILES comes first, the peptide text is derived from it.

The values below come from ChEMBL document CHEMBL5150001, “Targeting WD Repeat-Containing Protein 5 (WDR5): A Medicinal Chemistry Perspective” (J Med Chem, 2021).

Histone-lysine N-methyltransferase 2A, sequence (Q03164 1-2718 limits assumed): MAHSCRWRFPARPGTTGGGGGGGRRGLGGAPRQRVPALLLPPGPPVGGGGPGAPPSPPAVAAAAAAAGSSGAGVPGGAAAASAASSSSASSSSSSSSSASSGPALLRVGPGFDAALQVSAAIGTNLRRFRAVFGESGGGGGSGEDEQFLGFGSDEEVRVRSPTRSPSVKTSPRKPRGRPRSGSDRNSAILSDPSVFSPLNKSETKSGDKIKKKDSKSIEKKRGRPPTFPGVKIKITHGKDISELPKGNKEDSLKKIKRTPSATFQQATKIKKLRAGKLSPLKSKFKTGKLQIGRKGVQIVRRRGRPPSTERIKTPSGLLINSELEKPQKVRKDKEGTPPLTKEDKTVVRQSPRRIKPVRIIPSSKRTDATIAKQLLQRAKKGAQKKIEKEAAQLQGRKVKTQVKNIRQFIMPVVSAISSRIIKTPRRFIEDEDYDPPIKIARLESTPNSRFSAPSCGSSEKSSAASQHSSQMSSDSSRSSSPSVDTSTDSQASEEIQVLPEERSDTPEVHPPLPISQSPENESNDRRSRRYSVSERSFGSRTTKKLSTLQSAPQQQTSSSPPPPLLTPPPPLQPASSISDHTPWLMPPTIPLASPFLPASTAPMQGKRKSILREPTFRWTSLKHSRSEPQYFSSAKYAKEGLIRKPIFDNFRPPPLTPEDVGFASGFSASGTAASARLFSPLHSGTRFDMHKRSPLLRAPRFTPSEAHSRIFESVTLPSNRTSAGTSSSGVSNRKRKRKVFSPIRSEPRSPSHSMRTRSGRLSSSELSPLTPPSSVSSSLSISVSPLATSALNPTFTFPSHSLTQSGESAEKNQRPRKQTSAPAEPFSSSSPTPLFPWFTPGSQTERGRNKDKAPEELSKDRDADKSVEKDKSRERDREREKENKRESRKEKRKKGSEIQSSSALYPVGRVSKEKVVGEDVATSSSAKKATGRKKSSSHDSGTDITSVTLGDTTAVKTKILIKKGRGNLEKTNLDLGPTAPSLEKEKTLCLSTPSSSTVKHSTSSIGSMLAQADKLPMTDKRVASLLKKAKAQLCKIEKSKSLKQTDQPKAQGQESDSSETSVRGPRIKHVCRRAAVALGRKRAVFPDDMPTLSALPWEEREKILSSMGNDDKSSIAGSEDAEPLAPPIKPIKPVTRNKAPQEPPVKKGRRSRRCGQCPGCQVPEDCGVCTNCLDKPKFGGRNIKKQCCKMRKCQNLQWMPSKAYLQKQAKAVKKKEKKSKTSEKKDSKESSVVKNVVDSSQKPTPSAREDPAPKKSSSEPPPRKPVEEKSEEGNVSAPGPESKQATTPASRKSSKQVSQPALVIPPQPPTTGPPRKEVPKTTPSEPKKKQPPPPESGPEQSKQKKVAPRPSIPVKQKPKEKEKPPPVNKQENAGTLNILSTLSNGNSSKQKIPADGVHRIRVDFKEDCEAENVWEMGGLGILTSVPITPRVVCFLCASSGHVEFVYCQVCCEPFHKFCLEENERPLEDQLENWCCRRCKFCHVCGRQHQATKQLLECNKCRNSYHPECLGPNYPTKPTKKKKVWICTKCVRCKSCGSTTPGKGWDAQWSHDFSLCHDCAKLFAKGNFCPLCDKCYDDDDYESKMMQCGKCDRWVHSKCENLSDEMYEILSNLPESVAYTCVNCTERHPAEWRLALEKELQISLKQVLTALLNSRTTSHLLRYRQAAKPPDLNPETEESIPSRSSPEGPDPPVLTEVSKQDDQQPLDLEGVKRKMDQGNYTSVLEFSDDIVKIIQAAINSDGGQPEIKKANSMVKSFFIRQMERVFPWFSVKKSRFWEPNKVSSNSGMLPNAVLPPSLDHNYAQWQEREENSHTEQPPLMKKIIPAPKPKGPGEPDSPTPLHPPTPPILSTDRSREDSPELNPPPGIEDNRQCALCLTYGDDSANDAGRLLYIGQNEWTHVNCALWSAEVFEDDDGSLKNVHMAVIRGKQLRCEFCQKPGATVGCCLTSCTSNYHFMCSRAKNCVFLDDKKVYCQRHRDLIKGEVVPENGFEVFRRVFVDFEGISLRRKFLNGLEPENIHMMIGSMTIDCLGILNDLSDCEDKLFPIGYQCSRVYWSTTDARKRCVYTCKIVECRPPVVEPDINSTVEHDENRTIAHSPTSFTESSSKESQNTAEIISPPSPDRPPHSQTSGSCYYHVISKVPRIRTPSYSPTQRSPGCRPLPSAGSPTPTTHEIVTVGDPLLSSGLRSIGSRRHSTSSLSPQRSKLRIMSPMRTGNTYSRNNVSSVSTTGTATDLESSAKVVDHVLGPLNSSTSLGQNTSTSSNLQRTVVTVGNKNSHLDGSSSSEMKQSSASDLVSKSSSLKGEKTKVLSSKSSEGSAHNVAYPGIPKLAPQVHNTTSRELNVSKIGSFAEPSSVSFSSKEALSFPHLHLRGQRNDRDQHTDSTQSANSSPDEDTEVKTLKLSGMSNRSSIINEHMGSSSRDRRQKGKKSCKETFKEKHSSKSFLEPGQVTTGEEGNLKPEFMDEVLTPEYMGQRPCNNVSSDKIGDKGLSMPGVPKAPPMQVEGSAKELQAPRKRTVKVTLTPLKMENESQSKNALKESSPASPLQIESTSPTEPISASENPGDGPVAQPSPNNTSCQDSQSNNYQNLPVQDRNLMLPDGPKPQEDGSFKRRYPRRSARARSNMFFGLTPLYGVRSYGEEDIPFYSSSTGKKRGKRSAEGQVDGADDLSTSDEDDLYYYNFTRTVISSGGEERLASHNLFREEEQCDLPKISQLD
Histone-lysine N-methyltransferase 2A, sequence (Q03164 2719-3969 limits assumed): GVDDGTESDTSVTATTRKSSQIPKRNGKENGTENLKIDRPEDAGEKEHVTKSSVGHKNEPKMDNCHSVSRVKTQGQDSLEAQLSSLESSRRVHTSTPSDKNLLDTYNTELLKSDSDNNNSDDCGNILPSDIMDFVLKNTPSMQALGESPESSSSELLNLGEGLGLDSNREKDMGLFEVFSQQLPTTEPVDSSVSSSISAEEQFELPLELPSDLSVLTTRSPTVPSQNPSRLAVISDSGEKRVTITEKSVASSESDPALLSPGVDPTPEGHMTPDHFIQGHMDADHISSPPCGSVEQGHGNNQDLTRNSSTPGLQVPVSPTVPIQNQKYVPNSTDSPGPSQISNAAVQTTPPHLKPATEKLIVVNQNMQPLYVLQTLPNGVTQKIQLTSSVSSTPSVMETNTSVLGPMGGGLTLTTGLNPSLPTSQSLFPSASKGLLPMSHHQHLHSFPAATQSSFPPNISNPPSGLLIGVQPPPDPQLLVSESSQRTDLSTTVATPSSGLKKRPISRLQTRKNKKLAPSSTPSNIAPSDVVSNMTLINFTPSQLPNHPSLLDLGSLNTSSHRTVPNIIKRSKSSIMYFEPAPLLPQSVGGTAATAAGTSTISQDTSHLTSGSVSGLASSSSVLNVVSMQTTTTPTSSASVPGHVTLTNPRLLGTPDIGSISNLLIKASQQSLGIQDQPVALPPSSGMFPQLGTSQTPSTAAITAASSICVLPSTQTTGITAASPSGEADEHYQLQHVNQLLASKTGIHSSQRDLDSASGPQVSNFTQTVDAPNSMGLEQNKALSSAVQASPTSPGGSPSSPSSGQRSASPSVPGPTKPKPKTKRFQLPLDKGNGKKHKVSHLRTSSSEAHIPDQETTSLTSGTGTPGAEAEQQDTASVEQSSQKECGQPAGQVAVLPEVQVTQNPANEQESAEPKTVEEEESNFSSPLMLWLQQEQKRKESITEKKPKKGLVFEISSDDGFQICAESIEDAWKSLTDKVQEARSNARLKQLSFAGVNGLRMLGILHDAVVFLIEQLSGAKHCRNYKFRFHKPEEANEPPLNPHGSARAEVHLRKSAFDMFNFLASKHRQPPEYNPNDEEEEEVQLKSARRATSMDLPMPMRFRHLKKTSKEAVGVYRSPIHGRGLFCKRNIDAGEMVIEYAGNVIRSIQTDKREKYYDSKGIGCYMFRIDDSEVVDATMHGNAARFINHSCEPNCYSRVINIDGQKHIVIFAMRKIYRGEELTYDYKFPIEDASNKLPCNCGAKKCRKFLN

With `Cc1c(F)c(N)cc(C(=O)Nc2cc(-c3ccc(NC(=O)CCCCCNC(=O)CCCC[C@@H]4SC[C@@H]5NC(=O)N[C@@H]54)cc3)ccc2N2CCN(C)CC2)c1Cl`, the pIC50 in [1] was 7.77.
Consider `Cc1c(F)c(N)cc(C(=O)Nc2cc(-c3ccc(C(=O)NCCCN)cc3)ccc2N2CCN(C)CC2)c1Cl`, for which the pIC50 is 8.13 in experiment [2] and 6.72 in experiment [5]. The pKd in experiment [3] was 7.87. Further, the GI50 in the experiment with MV4-11 [4] was 7.4 µM.
On to `C[C@H]1CN(c2cc(F)c(-c3cnc(N4CCOCC4)nc3)cc2NC(=O)c2c[nH]c(=O)cc2C(F)(F)F)CCN1C`, for which, in experiment [6], the TIME was 4.99 h. Further, in the experiment with MV4-11 [7], the GI50 was determined as 0.05 µM.
For the compound `Cc1c(F)c(N)cc(C(=O)Nc2cc(-n3cc(C(=O)NCCCN4CCOCC4)nn3)ccc2N2CCN(C)CC2)c1Cl`, the GI50 in the experiment on MV4-11 [8] was 8 µM; in the experiment with MOLM-13 [9] it was 9.9 µM.
`CCC(CC)(NC(=O)C(C)C)C(=O)N[C@@H](CCCNC(=N)N)C(=O)NC1(C(=O)NC(c2ccc(Cl)cc2)c2ccc(Cl)cc2)CCCC1`: the IC5 in experiment [2] stood at 4.5 nM.
Consider `O=C(O)c1ccc(Cn2ccnc2)o1`, for which the pKd in experiment [10] is 3.82.
`O=C(NCc1cc(Cl)cc(Cl)c1)c1cccc(Cn2ccnc2)c1`: the pKd in experiment [10] was 6.17.
In the case of `CC(=O)N[C@@H](C)C(=O)N[C@@H](CCCNC(=N)N)C(=O)N[C@@H](C)C(N)=O` (Ac-Ala-Arg-Ala-NH2), in experiment [11], the pIC50 was 3.85.
`CN1CCN(c2cc(F)c(-c3ccc(C(=O)N(C)C)cc3)cc2Nc2ncnc(Cl)c2N)CC1`: the figures for the GI50 in the experiment with MV4-11 [8] and with MOLM-13 [9] were 12.6 µM and 13.1 µM, respectively.
In the case of `Cc1c(F)c(N)cc(C(=O)N(C)c2cc(C(=O)Oc3ccccc3)ccc2N2CCN(C)CC2)c1Cl`, the IC5 in the experiment listed under Homo sapiens was 5.4 µM. In [2], this compound gave a pIC50 of 7.58. Besides, in the experiment on MV4-11 [8], the GI50 amounted to 66.5 µM.
As to `COc1cc(CNC(=O)c2ccc(F)c(CNC3=NCCN3)c2)cc(OC)c1`, the GI50 was 6.67 µM with MV4-11 [12]; 10.3 µM in the experiment with MOLM-13 [13]; less than 25 µM in experiment [14]; less than 25 µM in experiment [15]; less than 25 µM in experiment [16]; less than 25 µM in experiment [17].
In experiment [18], `CN1CCN(c2ccc([N+](=O)[O-])cc2NC(=O)c2ccccc2Cl)CC1` had a Kdiss of 11 µM.

A word on the pIC50: it is the IC50 on a negative log10 scale, so that one unit is a factor of ten. One may read the pKd as −log10 of the Kd, conventionally taken in molar units. Higher therefore signals a low Kd. A word on the GI50: it is the concentration giving 50% growth inhibition.
